Measurements taken from paper PMC9412861, “Understanding the pH Dependence of Supersaturation State—A Case Study of Telmisartan” (Pharmaceutics, 2022).
Values after ≈ are worked out from the molar mass of the structure shown. Like-named read-outs stand apart in the source and are kept apart here.

Assays:
Format in all cases: physicochemical
[1] = Thermodynamic (equilibrium) solubility, saturation shake-flask, in distilled water
Method: The methods for thermodynamic solubility measurements can be found in Baka et al. (measured amount of TEL: 1 mg/mL, 37 °C, 6 h strirring, 18 h sedimentation). During the thermodynamic solubility measurements in Prisma buffers the concentration of the API was determined without filtering the solutions by the Rainbow Dynamic Dissolution Monitor instrument (Pion Inc., Billerica, MA, USA). In the case of solubility measurements in distilled water, the concentration of the API after filtration with PVDF membrane (0.22 µm) was determined by Jasco V-550 UV–vis spectrophotometer (Jasco Inc., Easton, MD, USA).

[2] = Kinetic solubility measurement (µDISS profiler)
Method: The kinetic solubility measurements of TEL were determined using µDISS™ profiler (Pion Inc., Billerica, MA, USA). The method was described earlier by Kadar et al..

[3] = Analysis of solubility-pH data with pDISOL-X; conditions: from thermodynamic solubility-pH data in distilled water
Description: For the analysis of solubility-pH profile, the pDISOL-X^TM program (in-ADME Research, NY, USA) was used. The mathematical approach used in the program for log S-pH simulation-refinement has been described by Völgyi et al.. The program has been applied in several other recent studies.

solubility thermodynamic at 6 h ([1]; pH 2.66, 37 °C, read-out: Equilibrium solubility S ± SD): 10.8 ± 0.53 µg/mL
solubility thermodynamic at 6 h ([1]; pH 2.66, 37 °C, read-out: Equilibrium solubility logS ± SD (converted)): 20.9 µM
solubility thermodynamic at 6 h ([1]; thermodynamic from solid, pH 2.16, 37 °C, read-out: Equilibrium solubility S ± SD): 148 ± 5.48 µg/mL
solubility thermodynamic at 6 h ([1]; thermodynamic from solid, pH 2.16, 37 °C, read-out: Equilibrium solubility logS ± SD (converted)): 288 µM
solubility thermodynamic at 6 h ([1]; thermodynamic from solid, pH 3.08, 37 °C, read-out: Equilibrium solubility S ± SD): 3.4 ± 0.49 µg/mL
solubility thermodynamic at 6 h ([1]; thermodynamic from solid, pH 3.08, 37 °C, read-out: Equilibrium solubility logS ± SD (converted)): 6.61 µM
solubility thermodynamic at 6 h ([1]; thermodynamic from solid, pH 3.98, 37 °C, read-out: Equilibrium solubility S ± SD): 0.36 ± 0.12 µg/mL
solubility thermodynamic at 6 h ([1]; thermodynamic from solid, pH 3.98, 37 °C, read-out: Equilibrium solubility logS ± SD (converted)): 0.692 µM
solubility thermodynamic at 6 h ([1]; thermodynamic from solid, pH 7.22, 37 °C, read-out: Equilibrium solubility S ± SD): 3.65 ± 0.11 µg/mL
solubility thermodynamic at 6 h ([1]; thermodynamic from solid, pH 7.22, 37 °C, read-out: Equilibrium solubility logS ± SD (converted)): 7.08 µM
solubility thermodynamic at 6 h ([1]; thermodynamic from solid, pH 7.4, 37 °C, read-out: Equilibrium solubility S ± SD): 13.8 ± 2.81 µg/mL
solubility thermodynamic at 6 h ([1]; thermodynamic from solid, pH 7.4, 37 °C, read-out: Equilibrium solubility logS ± SD (converted)): 26.9 µM
pH range of minimal kinetic solubility ([2]; Prisma HT buffer, 37 °C): 3–6
pH range in which a supersaturated solution is formed ([2]; based on kinetic solubility results): 3–8
difference between thermodynamic and kinetic solubility ([2]; more acidic pHs (below pH 3)): no significant difference
difference between thermodynamic and kinetic solubility ([2]; pH = 3 to pH = 8): near two-magnitude difference
dimerization constant logK21 [3]: 6.48 ± 0.19
dimerization constant logK22 [3]: 6.35 ± 0.47
solubility ([3]; thermodynamic from solid, read-out: calculated intrinsic solubility logS0 (converted)): 0.302 µM (≈ 0.155 µg/mL)
Compound: CCCc1nc2c(C)cc(-c3nc4ccccc4n3C)cc2n1Cc1ccc(-c2ccccc2C(=O)O)cc1 [Telmisartan, telmisartan]
